Data reported in paper PMC8282797, “Strictly regulated agonist-dependent activation of AMPA-R is the key characteristic of TAK-653 for robust synaptic responses and cognitive improvement” (Scientific Reports, 2021).

How the values were obtained:
GluA2o LBD [1] = target: T1, GluA2o LBD (Homo sapiens, UniProt P42262); experiment: SPA displacement of [3H]-HBT1 from His-tagged GluA2o LBD; conditions: 40 nM [3H]-HBT1, 100 μM glutamate, read-out: IC50, inhibition of binding between [3H]-HBT1 and His-LBD
Source text: (§1) We previously reported that structural interference at Ser750 in the channel-closed state of GluA2o LBD might be involved in the molecular mechanisms underlying the lower agonistic effect of AMPA-R potentiators with dihydropyridothiadiazine 2,2-dioxide derivatives and discovered TAK-137, 9-(4-phenoxyphenyl)-3,4-dihydropyrido[2,1-c][1,2,4]thiadiazine 2,2-dioxide (Fig. 1A)[16]. […] TAK-653 bound to the intradimer interface formed by the ligand binding core (Fig. 1B). […] Binding affinity of TAK-653 to the GluA2o LBD was measured by a scintillation proximity assay (SPA) using [^3H]-HBT1, a radio-labeled LBD-binding AMPA-R potentiator, and a His-tagged GluA2o LBD protein (His-LBD)[21]. […] Binding of [^3H]-TAK-653 to His-LBD was also measured by SPA.
The SPA assays were performed as previously described, with some modifications. […] Radioactivity derived from the bound radio ligand was measured using a microplate scintillation counter (TopCount NXT, PerkinElmer Inc.).

GluA2o LBD [2] = target: T1, GluA2o LBD; experiment: SPA binding of [3H]-AMPA to His-LBD
Source text: as §1
The SPA assays were performed as previously described, with some modifications. First, 62.5 μg YSi (2–5 μm) copper his-tag SPA beads (PerkinElmer Inc., Waltham, MA) and 0.25 μg His-tagged GluA2o LBD protein (His-LBD) were incubated in 100 μL PBS containing 0.01% NP-40 and 100 μM glutamate for the [^3H]-HBT1/LBD binding assay, containing 0.01% NP-40 and the indicated amount of glutamate for the [^3H]-TAK-653/LBD binding assay or containing 0.001% Triton X-100 for the [^3H]-AMPA/LBD binding assay in 96-well Luminunc plates (Thermo Fisher Scientific Inc.) overnight at 4 °C. Subsequently, test compound and tritium-labeled ligand (40 nM [^3H]-HBT1, 20 nM [^3H]-TAK-653 or 20 nM [^3H]-AMPA) were added to each well. Specific binding was defined as total binding minus nonspecific binding, which was estimated in the presence of 0.25 μg of control protein (His-tagged macrophage MIF protein) instead of His-LBD or in the presence of 3 mM AMPA. Radioactivity derived from the bound radio ligand was measured using a microplate scintillation counter (TopCount NXT, PerkinElmer Inc.).

BDNF mRNA = BDNF mRNA expression in mouse hippocampus; assay type: in vivo; conditions: 3 and 10 mg/kg, p.o.
Description: (§2) Male ICR mice at 7 weeks old were treated with orally administered vehicle or TAK-653. For the repeated dose study, TAK-653 (0.3 mg/kg, p.o.) or vehicle was administered for 14 days. AMPA at designated doses was intravenously (i.v.) administered 1 h after oral administration. Three hours after i.v. administration of AMPA, right hippocampi were isolated from the mice by euthanasia and acutely frozen on dry ice. Total RNA from mouse hippocampus was extracted with RNeasy 96 kit (Qiagen, Hilden, Germany). Reverse transcription of total RNA was performed using the High-capacity cDNA Archive kit (Life Technologies, Carlsbad, CA). Real-time quantitative PCR was carried out using an ABI PRISM 7900HT sequence detection system (Life Technologies) using PCR reagents (Nippon Gene Co. Limited, Toyama, Japan). Primers used for BDNF analyses were as follows: BDNF forward primer, 5’-[…]-3’; BDNF reverse primer, 5’-[…]-3’; BDNF TaqMan probe, 5’-FAM- […]-TAMRA-3’. Primers used for Gadd45b analyses were as follows: Gadd45b forward primer, 5’-[…]-3’; Gadd45b reverse primer, 5’-GCGCCAGCCTCTGCAT-3’; Gadd45b TaqMan probe, 5’'-FAM-[…]-MGB-3’. […] Concentrations of GAPDH mRNA were used for internal controls and relative BDNF or Gadd45b mRNA/GAPDH mRNA levels were calculated.

BDNF and Gadd45b mRNA = experiment: AMPA-induced BDNF and Gadd45b mRNA after 14 days of dosing; assay type: in vivo, mouse; conditions: pre-administration 0.3 mg/kg, p.o. for 14 days
Description: as §2

T1 sequence (P42262 with tags, fused parts or gaps): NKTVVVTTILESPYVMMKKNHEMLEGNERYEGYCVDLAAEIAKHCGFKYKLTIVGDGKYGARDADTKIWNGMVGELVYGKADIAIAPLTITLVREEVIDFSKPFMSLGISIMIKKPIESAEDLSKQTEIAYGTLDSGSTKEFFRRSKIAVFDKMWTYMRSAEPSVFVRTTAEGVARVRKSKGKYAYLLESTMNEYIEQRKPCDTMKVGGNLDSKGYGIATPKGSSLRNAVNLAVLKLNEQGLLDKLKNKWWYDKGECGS

## CC1=CN2CCS(=O)(=O)N=C2C(c2ccc(OC3CCCCC3)cc2)=N1 [TAK-653, 9-[4-(Cyclohexyloxy)phenyl]-7-methyl-3,4-dihydropyrazino[2,1-c][1,2,4]thiadiazine 2,2-dioxide]
GluA2o LBD [1]
  IC50: 260 nM
GluA2o LBD [2]
  Inhibition of specific binding of [3H]-AMPA to His-LBD: did not inhibit
GluA2o LBD [2]; SPA, 20 nM [3H]-AMPA, read-out: EC50 of increase in [3H]-AMPA binding
  EC50: 1500 ± 200 nM
GluA2o LBD [2]; SPA, 20 nM [3H]-AMPA, read-out: Emax of increase in [3H]-AMPA binding
  Emax: 19.9 ± 3.4%
BDNF mRNA; AMPA (3.5 mg/kg, i.v.)-treated mice
  BDNF mRNA levels in hippocampus: significantly increased
BDNF mRNA; compound alone
  BDNF mRNA levels in hippocampus: did not increase
BDNF and Gadd45b mRNA
  AMPA-induced BDNF and Gadd45b mRNA expression in hippocampus: did not affect
